According to patent publication US5677285A, “Derivatives of neuraminic acid” (Fidia S.P.A., priority 1992, dated 1997):
Where two headings read alike, the source gives them in different places.

How the values were obtained:
neonatal rats = test: Cerebral damage induced by icv injection of N-methyl-D-aspartate, total brain weight; assay type: in vivo; settings: for Total brain weight: NMDA 25 nmoles icv, 1 hour before and immediately after NMDA, day 12
Protocol: Experiments were performed on 7 day old neonatal rats weighing ca. 13 grams. […] The excitotoxin was solubilized in saline, and the pH was brought to 7.4 by adding 1N NaOH. The NMDA injection (25 nmoles/μl) was performed slowly (2 minutes) at the level of the right lateral ventricle utilizing a Hamilton syringe. Saline was administered to control animals (1 μl icv).
The compound was administered subcutaneously (sc) after suspension in 1% DMSO (experiment No. 1) or in 0.5% tragacanth (experiment No. 2). The compound was tested at the following doses: 1-3-5 mg/kg sc.
The treatment was conducted performing two administrations:
1 hour before NMDA injection;
immediately after NMDA injection.
The number of animals utilized in each experimental group (corresponding to the total number of animals, i.e., experiment 1+experiment 2, according to Table 3) is indicated in brackets.
Animals were sacrificed on the 12th day (i.e., 5 days after NMDA injection) for the evaluation of the in toto brain weight, defined in mg.
The statistical significance was evaluated using Dunnett's test.

cerebellar granule cells = test: Extracellular glutamate and aspartate content in potassium induced depolarization (HPLC); assay type: cell-based, Sprague-Dawley rats
Protocol: Primary cell cultures of cerebellar granule cells were prepared from 8 day old Sprague-Dawley rats.
Neurons were grown in 35 mm plates for 11-13 days and maintained in a humid environment (95% air and 5% CO2). Cultures (3×10^6 cells/plate) are mainly formed by granule cells (95%, with a small amount (5%) of glial cells (Gallo V. et al.: Selective release of glutamate from cerebellar granule cells differentiating in culture. Proc. Natl. Acad. Sci. USA 79, 7919-23, 1982). Glial proliferation was prevented by arabinofuranoside cytosine.
Derivative ND37 was solubilized at a concentration of […] in dimethylsulfoxide (1% DMSO), and then diluted at various concentrations (0.1-1-10-20 μM) in Locke's solution (154 mM NaCl/5.6 mM KCl/3.6 mM NaHCO3 /2.3 mM CaCl2 /1 mM MgCl2 /5.6mM glucose/5 mM HEPES, pH 7.4). […]
The cell culture medium was aspirated from the plates. Plates were washed (3×2 ml) with Locke's solution, and solutions (750 μl) containing the compound to be tested (concentrations from 0.1 to 20 μM) were added and incubated for 2 hours in an incubator at 37° C. (5% CO2) both in the presence and absence of different depolarizing concentrations of KCl (between 5 and 50 mM). The incubation medium was gathered, filtered through a 0.2 μ filter, and processed (220 μl) for the analysis of the amino acid content.
The glutamate and aspartate content (expressed as μM) was evaluated by HPLC (high pressure liquid chromatography), according to Bidlingmeryer B. A. et al., J. Chromatogr. 336, 93-104, 1984.

[1] = controls + ND 37 (20 uM), no KCl
[2] = group 3: KCl (50 mM) + ND37 (20 uM) as printed, corresponding group KCl (30 mM)
[3] = group 4: KCl (50 mM) + ND37 (20 uM), Table 5
[4] = group 5: KCl (50 mM) + ND37 (20 uM) as printed, corresponding group KCl (25 mM)
[5] = group 6: KCl (50 mM) + ND37 (20 uM) as printed, corresponding group KCl (15 mM)

## CCCCCCCCCCCCCCCC(=O)NC1C(O)CC(OCC)(C(=O)N(C)C)OC1C(O)C(O)CO (stereo not drawn) [ND37, β-2-O-ethylglycoside of the dimethylamide of N-palmitoylneuraminic acid]
Neonatal rats; 1 mg/kg sc, p<0.01
  efficacy against NMDA brain damage: significatively effective
Neonatal rats; 1-3-5 mg/kg sc
  reduction of brain damage induced by the excitotoxin (lowering of total brain weight): effective in reducing the brain damage
Neonatal rats; Experiment n.1 (vehicle = DMSO 1%), 1 mg/kg sc
  Total brain weight: 960 mg
Neonatal rats; Experiment n.1 (vehicle = DMSO 1%), 3 mg/kg sc
  Total brain weight: 968 mg
Neonatal rats; Experiment n.1 (vehicle = DMSO 1%), 5 mg/kg sc
  Total brain weight: 959 mg
Neonatal rats; Experiment n.2 (0.5% tragacanth), 1 mg/kg sc
  Total brain weight: 1019 mg
Neonatal rats; Experiment n.2 (0.5% tragacanth), 3 mg/kg sc
  Total brain weight: 977 mg
Neonatal rats; Experiment n.2 (0.5% tragacanth), 5 mg/kg sc
  Total brain weight: 976 mg
Cerebellar granule cells; 20 μM
  glutamate increase induced by KCl in the culture medium: completely abolished
Cerebellar granule cells; 20 μM, KCl 15, 25, 30, and 50 mM
  extracellular increase of glutamate and aspartate induced by KCl: completely abolished
Cerebellar granule cells; KCl (50 mM) + ND37 (0.1 uM)
  Extracellular glutamate content: 12.60 ± 0.57 µM
Cerebellar granule cells; KCl (50 mM) + ND37 (1 uM)
  Extracellular glutamate content: 13.30 ± 1.33 µM
Cerebellar granule cells; KCl (50 mM) + ND37 (10 uM)
  Extracellular glutamate content: 5.60 ± 2.37 µM
Cerebellar granule cells; KCl (50 mM) + ND37 (20 uM), Table 4
  Extracellular glutamate content: 0.11 ± 0.09 µM
Cerebellar granule cells; Rattus norvegicus, 2 h, KCl (50 mM) + ND37 (0.1 uM)
  activity at 0.1 µM: 72%
Cerebellar granule cells; Rattus norvegicus, 2 h, KCl (50 mM) + ND37 (1 uM)
  activity at 1 µM: 76%
Cerebellar granule cells; Rattus norvegicus, 2 h, KCl (50 mM) + ND37 (10 uM)
  activity at 10 µM: 32%
Cerebellar granule cells; Rattus norvegicus, 2 h, KCl (50 mM) + ND37 (20 uM), Table 4, read-out: % KCl 50 Mm (extracellular glutamate)
  activity at 20 µM: 0.01%
Cerebellar granule cells; Rattus norvegicus, 2 h, group 3: KCl (50 mM) + ND37 (20 uM) as printed, corresponding group KCl (30 mM), read-out: % corresp. KCl (aspartate)
  activity at 20 µM: 0.06%
Cerebellar granule cells; Rattus norvegicus, 2 h, group 3: KCl (50 mM) + ND37 (20 uM) as printed, corresponding group KCl (30 mM), read-out: % corresp. KCl (glutamate)
  activity at 20 µM: 0.01%
Cerebellar granule cells; Rattus norvegicus, 2 h, group 4: KCl (50 mM) + ND37 (20 uM), Table 5, read-out: % corresp. KCl (aspartate)
  activity at 20 µM: 0.13%
Cerebellar granule cells; Rattus norvegicus, 2 h, group 4: KCl (50 mM) + ND37 (20 uM), Table 5, read-out: % corresp. KCl (glutamate)
  activity at 20 µM: 0.02%
Cerebellar granule cells; Rattus norvegicus, 2 h, group 5: KCl (50 mM) + ND37 (20 uM) as printed, corresponding group KCl (25 mM), read-out: % corresp. KCl (aspartate)
  activity at 20 µM: 0.28%
Cerebellar granule cells; Rattus norvegicus, 2 h, group 5: KCl (50 mM) + ND37 (20 uM) as printed, corresponding group KCl (25 mM), read-out: % corresp. KCl (glutamate)
  activity at 20 µM: 0.06%
Cerebellar granule cells; Rattus norvegicus, 2 h, group 6: KCl (50 mM) + ND37 (20 uM) as printed, corresponding group KCl (15 mM), read-out: % corresp. KCl (aspartate)
  activity at 20 µM: 0.09%
Cerebellar granule cells; Rattus norvegicus, 2 h, group 6: KCl (50 mM) + ND37 (20 uM) as printed, corresponding group KCl (15 mM), read-out: % corresp. KCl (glutamate)
  activity at 20 µM: 0.34%
Cerebellar granule cells; Rattus norvegicus, 2 h, 0.1 μM, read-out: reduction of extracellular glutamate induced by KCl
  inhibition at 0.1 µM: ~30%
Cerebellar granule cells; [1]
  Extracell. aspartate content: 0.039 µM
  Extracell. glutamate content: 0.362 µM
Cerebellar granule cells; doses up to 20 μM
  basal levels (controls) of extracellular glutamate and aspartate: did not modify
Cerebellar granule cells; [2]
  Extracell. aspartate content: 0.063 µM
  Extracell. glutamate content: 0.318 µM
Cerebellar granule cells; [3]
  Extracell. aspartate content: 0.078 µM
  Extracell. glutamate content: 0.246 µM
Cerebellar granule cells; [4]
  Extracell. aspartate content: 0.107 µM
  Extracell. glutamate content: 0.330 µM
Cerebellar granule cells; [5]
  Extracell. aspartate content: 0.046 µM
  Extracell. glutamate content: 0.899 µM
